The subject of test [1] is H3K9AC (HT1080 cells). The test can be described thus: H3K9AC Sandwich ELISA Assay in HT1080 cells (KAT2A primary cell-based screening assay). Also on record: species or system Human. The essentials: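 Acetylated H3K9 quantified by luminescent sandwich ELISA (total H3 capture, H3K9ac detection) on HCl lysates of HT1080 cells. Cells had 24 h compound exposure at 37 °C, top concentration 10 µM, 10-point 3-fold series, 0.1% DMSO; IC50 from four-parameter fitting.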
In general terms: An ELISA detects its analyte on a solid surface through an enzyme-linked reagent.

The test system of test [2] is MM.1S cells. The test is described as follows: MM1.S 10 Day Proliferation Assay (CellTiter-Glo). The format is cell-based, Human. Here is the method: Human B lymphoblast cell line MM.1S was obtained from American Type Culture Collection (ATCC), Manassas, VA USA, Cat. MM.1S (ATCC® CRL-2974™). Cells were cultured in RPMI (Thermo Fisher Scientific/Gibco Life Technologies Cat. #111875-093) plus 10% (v/v) FBS (Thermo Fisher Scientific/Gibco Life Technologies Cat. #26140-079) and 1% Penicillin-Streptomycin (Thermo Fisher Scientific/Gibco Life Technologies Cat. #15070063) at 37° C. in 5% CO2.
MM1.S cells were trypsinized cell viability count performed, and cells suspended in complete media at 5,556 cells/ml. Cells were then seeded (90 μl/well) into a 96-well round black/clear bottom, ULA (Ultra-Low Attachment surface plate (Corning cat #4520) at a density of 500 cells/well. Cells were then incubated for 16 hours at 37° C. and 5% CO2. Compound dilution plates were prepared in 96-well, clear U-bottom, polypropylene plates (Corning 3365) in 100% DMSO at 10 mM stock concentration in duplicate wells, using a 10-point serial dilution (1:3 dilutions). Compounds were diluted to 1:100 in growth medium. Then 10 μl of diluted compounds were added to each well of the cell plates using a Beckman FX liquid handling system such that the highest compound concentration tested was 10 μM final, with a 0.1% final DMSO concentration in the total volume of 100 μl. Plates were incubated for 10 total days at 37° C. and 5% CO2. Fresh media containing compound was refreshed at 5 days treatment.
Finally, the treatment plates were removed from the incubator and 100 μl of CellTiter-Glo Luminescent reagent was added to each well, and plates were equilibrated in the dark for 30 minutes. Plates were read on the PHERAstar plate reader using the 96-well with Luminescent reading mode. IC50 values were calculated using a four-parameter fit with GraphPad Prism version 9.5.1 or in house modified IDBS ActivityBase data analyzing package.

For test [3], the target named is KAT2A (Homo sapiens (Human), UniProt Q92830). The test is described as follows: KAT2A acetyltransferase biochemical assay (RapidFire mass spectrometry, AcCoA to CoA).
The mark [4] stands for this setting: read-out: KAT2A Ki at 1 μM AcCoA, 5 μM H3 1-21 peptide, 0.5 nM KAT2A, 90-minute reaction.
Where [5] appears, read: Homo sapiens, HT-1080, H3K9AC sandwich ELISA.
The mark [6] stands for this setting: KAT2A Ki at 1 μM AcCoA, 5 μM H3 1-21 peptide, 0.5 nM KAT2A, 90-minute reaction.

Read-outs that look alike come from different tables or passages of the source.

KAT2A, sequence (Q92830 whole entry): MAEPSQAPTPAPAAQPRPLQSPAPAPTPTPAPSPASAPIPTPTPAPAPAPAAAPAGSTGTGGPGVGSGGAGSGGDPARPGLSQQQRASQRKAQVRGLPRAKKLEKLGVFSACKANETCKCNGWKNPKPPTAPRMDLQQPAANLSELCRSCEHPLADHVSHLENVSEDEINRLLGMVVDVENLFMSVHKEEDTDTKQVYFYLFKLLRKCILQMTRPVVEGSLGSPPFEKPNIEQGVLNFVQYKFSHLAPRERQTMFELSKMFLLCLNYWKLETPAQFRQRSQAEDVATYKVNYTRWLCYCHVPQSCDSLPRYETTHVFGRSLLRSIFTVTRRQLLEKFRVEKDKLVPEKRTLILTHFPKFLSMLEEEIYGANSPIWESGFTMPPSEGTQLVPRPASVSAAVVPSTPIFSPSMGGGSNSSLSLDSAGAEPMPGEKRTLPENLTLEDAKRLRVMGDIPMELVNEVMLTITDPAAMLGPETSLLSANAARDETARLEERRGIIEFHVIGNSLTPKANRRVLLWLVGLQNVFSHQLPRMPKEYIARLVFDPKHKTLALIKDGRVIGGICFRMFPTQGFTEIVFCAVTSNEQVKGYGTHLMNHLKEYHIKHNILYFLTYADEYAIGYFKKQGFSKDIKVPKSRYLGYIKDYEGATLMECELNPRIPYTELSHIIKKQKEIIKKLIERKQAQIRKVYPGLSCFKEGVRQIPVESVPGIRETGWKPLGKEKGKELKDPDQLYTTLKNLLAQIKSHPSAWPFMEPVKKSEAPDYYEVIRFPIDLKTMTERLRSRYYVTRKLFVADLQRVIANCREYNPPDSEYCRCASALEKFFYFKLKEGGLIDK

For the compound `O=C(O)c1ccc(O[C@@H]2CC[C@@H](NC(=O)[C@@]3(F)CNCC4(CCC4)C3)C2)c(-c2cccc(F)c2C2CCC2)c1` (single isomer, unassigned) [Example A34], the concentration for half-maximal inhibition (IC50) (commonly the midpoint of a concentration-inhibition curve) in test [1] (H3K9AC sandwich ELISA) amounted to 1.4 nM; in test [2] (Homo sapiens, MM1.S, 240 h), 7.8 nM. Besides, the Ki (usually the equilibrium dissociation constant of an inhibitor or competing ligand from its target) in test [3] (setting [4]) came out at 0.21 nM.
In the same order, the values of `O=C(O)c1ccc(O[C@@H]2CC[C@@H](NC(=O)[C@@]3(F)CNC4(CCCC4)C3)C2)c(-c2cccc(F)c2C2CCC2)c1` (single isomer, unassigned) [Example A36] are 0.7 nM, 3.5 nM and 0.1 nM.
In the same order, the values of `CC1(C)CNCC(F)(C(=O)N[C@@H]2CC[C@@H](Oc3ccc(C(=O)O)cc3-c3cccc(F)c3C3CCC3)C2)C1` (single isomer, unassigned) [Example A38] are 4 nM, 18.3 nM and 0.02 nM.
As for `CC(C)c1ccccc1-c1cc(C(=O)O)ccc1O[C@@H]1CC[C@@H](NC(=O)[C@@]2(F)CNC3(CCCC3)C2)C1` (single isomer, unassigned) [Example A40], the IC50 in test [1] (H3K9AC sandwich ELISA) and in test [2] was above 1000 nM in each case. Besides, the Ki in test [3] (setting [4]) was above 99.9 nM.
For `CCc1c(F)cccc1-c1cc(C(=O)O)ccc1O[C@@H]1CC[C@@H](NC(=O)[C@@]2(F)CNC3(CCCC3)C2)C1` (single isomer, unassigned) [Example A42], the IC50 in test [1] (H3K9AC sandwich ELISA) came out at 8.4 nM; in test [2], 37.4 nM. The Ki in test [3] (setting [4]) stood at 0.41 nM.
In the same order, the values of `CCc1c(F)cccc1-c1cc(C(=O)O)ccc1O[C@@H]1CC[C@@H](NC(=O)[C@@]2(F)CNC3(CCCC3)C2)C1` (single isomer, unassigned) [Example A43] are above 1000 nM, above 1000 nM and above 99.9 nM.
As for `CC(C)(C(=O)NS(=O)(=O)N1CC(F)C1)c1ccc(O[C@@H]2CC[C@@H](NC(=O)[C@@]3(F)CNC4(CCC4)C3)C2)c(-c2cccc(F)c2C2CCC2)c1` (single isomer, unassigned) [Example B5], the half-inhibitory concentration (IC50) is 9.93 nM in test [1] (setting [5]) and 13.3 nM in test [2] (Homo sapiens, MM1.S, 240 h). Further, in test [3] (setting [4]), the inhibition constant Ki was found to be 0.09 nM.
In the same order, the values of `CN1C[C@](F)(C(=O)N[C@@H]2CC[C@@H](Oc3ccc(C(C)(C)C(=O)NS(C)(=O)=O)cc3-c3cccc(F)c3C3CCC3)C2)CC1(C)C` (single isomer, unassigned) [Example B7] are 20.9 nM, 102 nM and 3.78 nM.
In the same order, the values of `CC(C)(C(=O)NS(=O)(=O)C1CC1)c1ccc(O[C@@H]2CC[C@@H](NC(=O)[C@]3(F)CNC4(CCC4)C3)C2)c(-c2cccc(F)c2C2CCC2)c1` (single isomer, unassigned) [Example B12] are 1.4 nM, 14.1 nM and 0.18 nM.
Turning to `CCS(=O)(=O)NC(=O)C(C)(C)c1ccc(O[C@@H]2CC[C@@H](NC(=O)[C@@]3(F)CNC(C)(C)C3)C2)c(-c2cccc(F)c2C2CCC2)c1` (single isomer, unassigned) [Example B14], the 50% inhibitory concentration (IC50) in test [1] (H3K9AC sandwich ELISA) is 49.1 nM; in test [2], 553 nM. For the same compound, the Ki in test [3] (setting [4]) stood at 1.83 nM.
As to `CS(=O)(=O)NC(=O)Cc1ccc(O[C@@H]2CC[C@@H](NC(=O)C3(F)CNC4(CCCC4)C3)C2)c(-c2cccc(F)c2C2CCC2)c1` (single isomer, unassigned) [Example B16], the half-inhibitory concentration (IC50) worked out at 2.68 nM in test [1] (setting [5]) and 11.6 nM in test [2] (Homo sapiens, MM1.S, 240 h). The affinity in test [3] (setting [6]) corresponds to a Ki of 0.08 nM.
For `CC(C)S(=O)(=O)NC(=O)C(C)(C)c1ccc(O[C@@H]2CC[C@@H](NC(=O)[C@@]3(F)CNC(C)(C)C3)C2)c(-c2cccc(F)c2C2CCC2)c1` (single isomer, unassigned) [Example B17], the values for the IC50 in test [1] (H3K9AC sandwich ELISA) and in test [2] were 3.49 nM and 41.7 nM, respectively. Further, the inhibition constant Ki in test [3] (setting [4]) turned out to be 0.1 nM.
In the same order, the values of `CC(C)S(=O)(=O)NC(=O)C(C)(C)c1ccc(O[C@@H]2CC[C@@H](NC(=O)[C@@]3(F)CNC(C)(C)C3)C2)c(-c2cccc(F)c2C2CCC2)c1` (single isomer, unassigned) [Example B18] are 121 nM, 1270 nM and 16.1 nM.
Take `CCS(=O)(=O)NC(=O)C(C)(C)c1ccc(O[C@@H]2CC[C@@H](NC(=O)[C@@]3(F)CNCC(C)(C)C3)C2)c(-c2cccc(F)c2C2CCC2)c1` (single isomer, unassigned) [Example B22]: the IC50 is 2.38 nM in test [1] (setting [5]) and 2.51 nM in test [2] (Homo sapiens, MM1.S, 240 h). For the same compound, the Ki in test [3] (setting [4]) worked out at 0.09 nM.
In the same order, the values of `CC(C)(C(=O)NS(=O)(=O)C1CC1)c1ccc(O[C@@H]2CC[C@@H](NC(=O)[C@@]3(F)CNC4(CCCC4)C3)C2)c(-c2cccc(F)c2C2CCC2)c1` (single isomer, unassigned) [Example B26] are 2.2 nM, 7.4 nM and 0.06 nM.
In the same order, the values of `CC(C)S(=O)(=O)NC(=O)C(C)(C)c1ccc(O[C@@H]2CC[C@@H](NC(=O)[C@@]3(F)CNCC(C)(C)C3)C2)c(-c2cccc(F)c2C2CCC2)c1` (single isomer, unassigned) [Example B30] are 1.7 nM, 4.2 nM and 0.09 nM.
Turning to `CCS(=O)(=O)NC(=O)C(C)(C)c1ccc(O[C@@H]2CC[C@@H](NC(=O)[C@@]3(F)CNCC4(CCC4)C3)C2)c(-c2cccc(F)c2C2CCC2)c1` (single isomer, unassigned) [Example B31], the half-maximal inhibitory concentration (IC50) amounted to 2.1 nM in test [1] (H3K9AC sandwich ELISA) and 1.4 nM in test [2] (Homo sapiens, MM1.S, 240 h). In test [3] (setting [4]), the inhibitory constant (Ki) came to 0.04 nM.
Take `CC(C)(C(=O)NS(=O)(=O)C1(C)CC1)c1ccc(O[C@@H]2CC[C@@H](NC(=O)[C@@]3(F)CNC4(CCC4)C3)C2)c(-c2cccc(F)c2C2CCC2)c1` (single isomer, unassigned) [Example B34]: the IC50 in test [1] (setting [5]) was found to be 3.1 nM; in test [2] (Homo sapiens, MM1.S, 240 h) it was 8.4 nM. Moreover, the Ki in test [3] (setting [4]) stood at 0.04 nM.
In the same order, the values of `CCc1c(F)cccc1-c1cc(C(C)(C)C(=O)NS(C)(=O)=O)ccc1O[C@@H]1CC[C@@H](NC(=O)[C@@]2(F)CNC3(CCC3)C2)C1` (single isomer, unassigned) [Example C11] are 21.6 nM, 253 nM and 2.22 nM.
On to `CC(C)c1c(F)cccc1-c1cc(C(C)(C)C(=O)NS(C)(=O)=O)ccc1O[C@@H]1CC[C@@H](NC(=O)[C@@]2(F)CNC3(CCC3)C2)C1` (single isomer, unassigned) [Example C20], for which the half-maximal inhibitory concentration (IC50) in test [1] (H3K9AC sandwich ELISA) was above 1000 nM; in test [2], above 10000 nM. Also, the Ki in test [3] (setting [4]) came out at 708 nM.
In the case of `CC(C)(C(=O)NS(=O)(=O)C1(C)CC1)c1ccc(O[C@@H]2CC[C@@H](NC(=O)[C@@]3(F)CNC4(CCC4)C3)C2)c(-c2cccc(F)c2C2CC2)c1` (single isomer, unassigned) [Example C22], the half-inhibitory concentration (IC50) in test [1] (H3K9AC sandwich ELISA) was found to be 4.49 nM; in test [2], 7.8 nM. For the same compound, the Ki in test [3] (setting [4]) amounted to 0.14 nM.
With `O=C(Cc1ccc(O[C@@H]2CC[C@@H](NC(=O)[C@@]3(F)CNC4(CCC4)C3)C2)c(-c2cccc(F)c2C2CCC2)c1)NS(=O)(=O)C1CC1` (single isomer, unassigned) [Example C31], the 50% inhibitory concentration (IC50) in test [1] (setting [5]) worked out at 1.78 nM; in test [2] (Homo sapiens, MM1.S, 240 h), 2.85 nM. In addition, the inhibition constant Ki in test [3] (setting [4]) is 0.02 nM.
As for `CC1(C)CNC[C@](F)(C(=O)N[C@@H]2CC[C@@H](Oc3ccc(C(C)(C)C(=O)NS(=O)(=O)C4(C)CC4)cc3-c3cccc(F)c3C3CCC3)C2)C1` (single isomer, unassigned) [Example C35], the IC50 came out at 3.5 nM in test [1] (setting [5]) and 7.8 nM in test [2] (Homo sapiens, MM1.S, 240 h). In test [3] (setting [4]), the inhibition constant Ki is 0.14 nM.
In the same order, the values of `CC1(C)CNC[C@](F)(C(=O)N[C@@H]2CC[C@@H](Oc3ccc(C(C)(C)C(=O)NS(C)(=O)=O)cc3-c3cccc(F)c3C3CCC3)C2)C1` (single isomer, unassigned) [Example C37] are 3 nM, 11 nM and 0.06 nM.
Take `CS(=O)(=O)NC(=O)Cc1ccc(O[C@@H]2CC[C@@H](NC(=O)[C@]3(F)CNC4(CCC4)C3)C2)c(-c2cccc(F)c2C2CCC2)c1` (single isomer, unassigned) [Example C38]: the half-inhibitory concentration (IC50) in test [1] (setting [5]) was found to be 6.1 nM; in test [2] (Homo sapiens, MM1.S, 240 h) it was 10.2 nM. In addition, the affinity in test [3] (setting [6]) corresponds to a Ki of 0.09 nM.

Values taken from patent US20250188030A1, “Biphenyl and Phenylpyridine Compounds” (Pfizer Inc., priority 2023, published 2025).
